In EP4707284A1, “HETEROCYCLIC COMPOUND AND USE THEREOF” (Otsuka Pharmaceutical Co., Ltd., priority 2023, dated 2024):

Type: physicochemical
Settings: Tris-hydrochloric acid buffer (pH 7.5) 50 mmol/L, magnesium chloride 5 mmol/L, evaluation compound 1 µmol/L, 37°C, 60 minutes, average of duplicate
Procedure: The conversion from the evaluation compounds to brexpiprazole in a buffer (i.e., the stability of the evaluation compounds) was evaluated.
The Example 1 compound was dissolved in acetonitrile/water (1:1, v/v) to 10 mmol/L and further diluted with acetonitrile/water (1:1, v/v) to 100 µmol/L for use.
The other Example compounds and the Reference Example 5 compound to Reference Example 7 compound were each dissolved in DMSO to 10 mmol/L and further diluted with acetonitrile to 100 µmol/L for use, except for the following compounds.
The compounds of Examples 52, 95, 96, 117, and 130 (EX 52, EX 95, EX 96, EX 117, and EX 130) were dissolved in acetonitrile/water (8:2, v/v) to 10 mmol/L and further diluted with acetonitrile to 100 µmol/L for use.
The compound of Example 97 (EX 97) was dissolved in acetonitrile/water (8:2, v/v) to 10 mmol/L and further diluted with acetonitrile/water (8:2, v/v) to 100 µmol/L for use.
The compounds of Examples 15 and 116 (EX 15 and EX 116) were dissolved in DMSO to 1 mmol/L and further diluted with acetonitrile to 100 µmol/L for use.
These evaluation compound solutions were prepared at the time of use.
The reaction was conducted by preparing each reaction solution such that the final concentration of each component was as follows. The test was conducted in duplicate.
For the compounds of Examples 1 to 8, 10 to 19, 26 to 27, 37, 50, 87 to 89, 91, 116, 121, 123, 150, and 151 (EX 1 to EX 8, EX 10 to EX 19, EX 26 to EX 27, EX 37, EX 50, EX 87 to EX 89, EX 91, EX 116, EX 121, EX 123, EX 150, and EX 151), and the compounds of Reference Examples 5 to 7 (REX 5 to REX 7), the reaction solution without the evaluation compound (198 µl) was pre-incubated at 37°C for 3 minutes, and then each of the evaluation compound solutions (2 µl) was added and stirred; thereafter, the reaction was started at 37°C. At 0 minutes or 60 minutes after the start of the reaction, the reaction was stopped by adding and stirring a reaction stop solution (1000 µl) composed of acetonitrile/isopropanol (4:1, v/v) containing internal standard substances. However, the 0-minute reaction sample (198 µl) was prepared by adding the evaluation compound (2 µl) after adding the reaction stop solution (1000 µl). The samples after stopping the reaction were used as the measurement samples. Calibration curve samples with the same composition were prepared (final concentrations of the evaluation compounds and brexpiprazole: 0.01, 0.1, and 1 µmol/L, with the proviso that for the evaluation compounds only, the 0-minute reaction samples were also used as calibration curve samples for 1 µmol/L).
For the compounds of Examples 24 to 25, 28 to 29, 32 to 36, 40 to 49, 51 to 60, 62 to 64, 66 to 77, 80 to 86, 90, 92 to 111, 113, 115, 117 to 120, 122, 124 to 130, 132 to 147, and 152 to 160 (EX 24 to EX 25, EX 28 to EX 29, EX 32 to EX 36, EX 40 to EX 49, EX 51 to EX 60, EX 62 to EX 64, EX 66 to EX 77, EX 80 to EX 86, EX 90, EX 92 to EX 111, EX 113, EX 115, EX 117 to EX 120, EX 122, EX 124 to EX 130, EX 132 to EX 147, and EX 152 to EX 160), the reaction solution without the evaluation compound (148.5 µl) was pre-incubated at 37°C for 3 minutes, and then each of the evaluation compound solutions (1.5 µl) was added and stirred; thereafter, the reaction was started at 37°C. At 0 minutes or 60 minutes after the start of the reaction, the reaction was stopped by adding and stirring a reaction stop solution (600 µl) composed of acetonitrile/isopropanol (4:1, v/v) containing internal standard substances. However, the 0-minute reaction sample (148.5 µl) was prepared by adding the evaluation compound (1.5 µl) after adding the reaction stop solution (600 µl). The samples after stopping the reaction were used as the measurement samples. […]

Row | Compound | Concentration of brexpiprazole formed | Concentration of evaluation compound decreased
1 | CCCCCCCCOP(=O)([O-])OC[N+]1(CCCCOc2ccc3ccc(=O)[nH]c3c2)CCN(c2cccc3sccc23)CC1 [EX 37] | 0 nM | 60 nM
2 | CCCOP(=O)([O-])OC[N+]1(CCCCOc2ccc3ccc(=O)[nH]c3c2)CCN(c2cccc3sccc23)CC1 [EX 88] | 0 nM | -10 nM
3 | O=C(O)CCCC(=O)OCOP(=O)([O-])OC[N+]1(CCCCOc2ccc3ccc(=O)[nH]c3c2)CCN(c2cccc3sccc23)CC1 [EX 70] | 0 nM | 0 nM
4 | CCC(CC)COC(=O)[C@@H](C)OP(=O)([O-])OC[N+]1(CCCCOc2ccc3ccc(=O)[nH]c3c2)CCN(c2cccc3sccc23)CC1 [EX 108] | 0 nM | 80 nM
5 | COCCCCOP(=O)([O-])OC[N+]1(CCCCOc2ccc3ccc(=O)[nH]c3c2)CCN(c2cccc3sccc23)CC1 [EX 50] | 0 nM | 10 nM
6 | CCCCOCCOCCOC(=O)OCOP(=O)([O-])OC[N+]1(CCCCOc2ccc3ccc(=O)[nH]c3c2)CCN(c2cccc3sccc23)CC1 [EX 135] | 0 nM | 70 nM
7 | COCCC(=O)OCOP(=O)([O-])OC[N+]1(CCCCOc2ccc3ccc(=O)[nH]c3c2)CCN(c2cccc3sccc23)CC1 [EX 28] | -10 nM | -70 nM
8 | O=c1ccc2ccc(OCCCC[N+]3(COP(=O)([O-])OCCOCCO)CCN(c4cccc5sccc45)CC3)cc2[nH]1 [EX 93] | 0 nM | -10 nM
9 | O=C(CCCCCO)OCOP(=O)([O-])OC[N+]1(CCCCOc2ccc3ccc(=O)[nH]c3c2)CCN(c2cccc3sccc23)CC1 [EX 126] | 0 nM | 160 nM
10 | O=C(OCCCCCCOP(=O)([O-])OC[N+]1(CCCCOc2ccc3ccc(=O)[nH]c3c2)CCN(c2cccc3sccc23)CC1)c1ccccc1 [EX 57] | 0 nM | 90 nM
11 | CC1(C)OCC(C(=O)OCOP(=O)([O-])OC[N+]2(CCCCOc3ccc4ccc(=O)[nH]c4c3)CCN(c3cccc4sccc34)CC2)CO1 [EX 67] | 0 nM | 90 nM
12 | O=c1ccc2ccc(OCCCC[N+]3(COP(=O)([O-])O)CCN(c4cccc5sccc45)CC3)cc2[nH]1 [EX 1, (4-(benzo[b]thiophen-4-yl)-1-((4-((2-oxo-1,2-dihydroquinolin-7-yl)oxy)butyl)piperazin-1-ium-1-yl)methyl hydrogen phosphate] | 0 nM | 0 nM
13 | CC(C)(CO)COP(=O)([O-])OC[N+]1(CCCCOc2ccc3ccc(=O)[nH]c3c2)CCN(c2cccc3sccc23)CC1 [EX 48] | 0 nM | -30 nM
14 | O=C(O)CCCCCOC(=O)OCOP(=O)([O-])OC[N+]1(CCCCOc2ccc3ccc(=O)[nH]c3c2)CCN(c2cccc3sccc23)CC1 [EX 145] | 0 nM | 30 nM
15 | CCCCOP(=O)([O-])OC[N+]1(CCCCOc2ccc3ccc(=O)[nH]c3c2)CCN(c2cccc3sccc23)CC1 [EX 89] | 0 nM | -70 nM
16 | O=C(OCOP(=O)([O-])OC[N+]1(CCCCOc2ccc3ccc(=O)[nH]c3c2)CCN(c2cccc3sccc23)CC1)C12CC3CC(CC(C3)C1)C2 [EX 124] | 0 nM | 100 nM

Row | Compound | Concentration of brexpiprazole formed | Concentration of evaluation compound decreased
17 | CCOCCC(=O)OCOP(=O)([O-])OC[N+]1(CCCCOc2ccc3ccc(=O)[nH]c3c2)CCN(c2cccc3sccc23)CC1 [EX 29] | 0 nM | -10 nM
18 | COCCOCCOCCOC(=O)OCOP(=O)([O-])OC[N+]1(CCCCOc2ccc3ccc(=O)[nH]c3c2)CCN(c2cccc3sccc23)CC1 [EX 35] | 0 nM | -20 nM
19 | CC(C)NC(=O)CCCCCCCCC(=O)OCOP(=O)([O-])OC[N+]1(CCCCOc2ccc3ccc(=O)[nH]c3c2)CCN(c2cccc3sccc23)CC1 [EX 76] | 0 nM | 0 nM
20 | CCCC(=O)OCOP(=O)([O-])OC[N+]1(CCCCOc2ccc3ccc(=O)[nH]c3c2)CCN(c2cccc3sccc23)CC1 [EX 121] | 0 nM | 90 nM
21 | COCCOC(=O)CCCCCCCCCCC(=O)OCOP(=O)([O-])OC[N+]1(CCCCOc2ccc3ccc(=O)[nH]c3c2)CCN(c2cccc3sccc23)CC1 [EX 77] | 0 nM | 110 nM
22 | O=c1ccc2ccc(OCCCC[N+]3(COP(=O)([O-])OCC#CCCl)CCN(c4cccc5sccc45)CC3)cc2[nH]1 [EX 63] | 0 nM | 20 nM
23 | COCCNP(=O)([O-])OC[N+]1(CCCCOc2ccc3ccc(=O)[nH]c3c2)CCN(c2cccc3sccc23)CC1 [EX 152] | 0 nM | 10 nM
24 | CC1(C)O[C@H]2[C@@H](O1)[C@@H](COP(=O)([O-])OC[N+]1(CCCCOc3ccc4ccc(=O)[nH]c4c3)CCN(c3cccc4sccc34)CC1)O[C@@H]1OC(C)(C)O[C@@H]12 [EX 100] | 0 nM | 50 nM
25 | CCOC(=O)[C@@H](C)OP(=O)([O-])OC[N+]1(CCCCOc2ccc3ccc(=O)[nH]c3c2)CCN(c2cccc3sccc23)CC1 [EX 103] | 0 nM | -10 nM
26 | CC(C)OC(=O)OCOP(=O)([O-])OC[N+]1(CCCCOc2ccc3ccc(=O)[nH]c3c2)CCN(c2cccc3sccc23)CC1 [EX 130] | 0 nM | -20 nM
27 | CC(C)OCCOCCOCCOC(=O)OCOP(=O)([O-])OC[N+]1(CCCCOc2ccc3ccc(=O)[nH]c3c2)CCN(c2cccc3sccc23)CC1 [EX 137] | 0 nM | 90 nM
28 | COC(=O)[C@H](COP(=O)([O-])OC[N+]1(CCCCOc2ccc3ccc(=O)[nH]c3c2)CCN(c2cccc3sccc23)CC1)NC(=O)OC(C)(C)C [EX 83] | 0 nM | 70 nM
29 | CCCOCCOP(=O)([O-])OC[N+]1(CCCCOc2ccc3ccc(=O)[nH]c3c2)CCN(c2cccc3sccc23)CC1 [EX 95] | 0 nM | -10 nM
30 | CC(=O)OCCCCCCOP(=O)([O-])OC[N+]1(CCCCOc2ccc3ccc(=O)[nH]c3c2)CCN(c2cccc3sccc23)CC1 [EX 101] | 0 nM | 80 nM
31 | CCOCCOCCOC(=O)OCOP(=O)([O-])OC[N+]1(CCCCOc2ccc3ccc(=O)[nH]c3c2)CCN(c2cccc3sccc23)CC1 [EX 134] | 0 nM | 70 nM
